Consider three compounds from patent US20040006139A1, “Choline pyruvate, method for the production thereof, formulations containing choline pyruvate and the use thereof” (priority 2000, published 2004).

The conditions of data set [1]: 12 hours of storage in a refrigerator; clear, yellow liquid.
The conditions of data set [2]: person, run over marathon distance (26.2 miles), daily supplement of 10 g.
For data set [3] the following is noted: person, daily supplement of 5 g.
The conditions of data set [4]: cited from earlier work.
Data set [5] relates to intestinal bacteria. Particulars: by intestinal bacteria; cited from earlier work.
For data set [6] the following is noted: long-distance runners, 20 miles, intake of 2.8 g, placebo-controlled; cited from earlier work.

Like-named read-outs stand apart in the source and are kept apart here.

Turning to choline pyruvate [Example 1], under “Day 4”, the Appearance result is reported as “clear”, the “HPLC content Parapyruvate” value was determined as 2.7%, the “HPLC content Pyruvate” value was determined as 35.3% and the “IC content Choline” value is listed as 50.6%. For the setting “Day 21”, the Appearance entry is “clear”, the “HPLC content Parapyruvate” value worked out at 2.6%, the “HPLC content Pyruvate” value amounted to 35.8% and the “IC content Choline” value is on record as 50.6%. For the same compound, where the note is “Day 42”, the Appearance entry is on record as “clear”, the “HPLC content Parapyruvate” value is 2.6%, the “HPLC content Pyruvate” value was found to be 35.5% and the “IC content Choline” value was found to be 50.7%. In addition, where the note is “Day 103”, the Appearance entry is “clear”, the “HPLC content Parapyruvate” value stood at 2.8%, the “HPLC content Pyruvate” value is given as 35.9% and the “IC content Choline” value stood at 50.6%. Also, the stability during storage entry in data set [1] is on record as “remained stable”. In data set [2], this compound returned a performance increase of 4%. For the same compound, in data set [3], the fat-free body mass entry is recorded as “increase” and the weight reduction entry is on record as “approximately 3%”.
Consider `C[N+](C)(C)CCO` [choline, hydroxyethyltrimethylammonium], for which, in data set [4] (in vivo), the “lowest-observed-adverse-effect level (LOAEL)” value was 7.5 g/day. In data set [4] (taking into consideration an element of uncertainty), the “upper tolerable daily dose” value is 3.5 g. The “oral intake converted into di- or trimethylamine” value in data set [5] was “Approximately 60%”.
Regarding `C[N+](C)(C)CCO.[Cl-]` [choline chloride], in data set [6], the performance increase entry was “approximately 3%”.
